Values joined by “and” are separate entries in the source; they are usually repeats but may differ in a detail not shown here. Identical values can stand only once.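 Step 1: Grow cells in 96-well plates. Step 2: Expose to compound for 48 hours at 5 concentrations. Step 3: Interpolate endpoints linearly; if unreached, use highest concentration. At the GI50, growth is halved. Definition used: TGI = concentration required for complete inhibition of growth.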
Legend:
Assay in all cases: NCI-60 cell line screen, 48 h
SW-620 colon = tested on: SW-620 colon
HT29 colon = tested on: HT29 colon
COLO 205 colon = tested on: COLO 205 colon
SNB-75 CNS = tested on: SNB-75 CNS
UO-31 renal = tested on: UO-31 renal
NCI-H23 lung = tested on: NCI-H23 lung
HS 578T breast = tested on: HS 578T breast
SR leukemia = tested on: SR leukemia
DU-145 prostate = tested on: DU-145 prostate
OVCAR-4 ovarian = tested on: OVCAR-4 ovarian

Compound	GI50 (SW-620 colon)	TGI (SW-620 colon)	GI50 (HT29 colon)	TGI (HT29 colon)	GI50 (COLO 205 colon)	TGI (COLO 205 colon)	GI50 (SNB-75 CNS)	TGI (SNB-75 CNS)	GI50 (UO-31 renal)	TGI (UO-31 renal)	GI50 (NCI-H23 lung)	TGI (NCI-H23 lung)	GI50 (HS 578T breast)	TGI (HS 578T breast)	GI50 (SR leukemia)	GI50 (DU-145 prostate)	TGI (DU-145 prostate)	GI50 (OVCAR-4 ovarian)	TGI (OVCAR-4 ovarian)	TGI (SR leukemia)
COc1cc2nnn3c4ncccc4c(N=O)c3c2cc1OC	0.312 µM	> 100 µM	1.34 µM	> 100 µM	8.21 µM	31.2 µM	2.59 µM	40.1 µM	0.89 µM	> 20.8 µM	6.4 µM	27.9 µM	4.82 µM	> 100 µM	0.0319 µM	3.02 µM	12.5 µM	3.23 µM	> 100 µM	
CC[C@@]1(O)C(=O)OCc2c1cc1n(c2=O)Cc2cc3c(N)cccc3nc2-1		16.3 µM	0.0774 µM	> 30.1 µM		6.22 µM		0.0711 µM and 0.231 µM	0.00841 µM	0.127 µM	0.00525 µM	0.0511 µM and 0.162 µM	0.0865 µM	> 60.7 µM	0.00165 µM	0.004 µM	< 0.0299 µM		3.62 µM	
O=C(O)C1C2C=CC(O2)C1C(=O)Nc1ncccn1 (stereo not given)		> 100 µM		> 100 µM		> 100 µM		> 100 µM		> 100 µM		> 100 µM		> 100 µM			> 100 µM		> 100 µM	> 100 µM
C=CC(=O)Nc1cccc(Nc2nc(Nc3ccc(OCCOC(F)F)cc3)ncc2F)c1	3.27 µM	> 100 µM	2.67 µM	13.5 µM	4.17 µM	17.5 µM	0.848 µM	5 µM	1.29 µM	9.56 µM	6.99 µM	> 100 µM	2.13 µM	8.77 µM	2.88 µM	1.96 µM	> 100 µM	2.66 µM	> 100 µM	> 100 µM
Cc1ccc(/C=C2\CNC/C(=C\c3ccc(C)cc3)C2=O)cc1	0.473 µM	2.11 µM and 8.36 µM	0.392 µM	1.41 µM and 3.04 µM	1.45 µM	2.78 µM and 7.3 µM	8.74 µM	68.1 µM		3.14 µM and 3.25 µM		3.79 µM and 4.1 µM		> 100 µM	0.565 µM		16 µM	1.89 µM	4.04 µM and 23.1 µM	2.87 µM and 1.83 µM
CCC(=O)c1cc([N+](=O)[O-])c(Br)s1	1.65 µM	3.19 µM	1.52 µM	3.29 µM	1.99 µM	3.56 µM	10.4 µM	22.2 µM	1.59 µM	2.98 µM	17.3 µM	49.2 µM	19.5 µM	85 µM	1.2 µM	4.31 µM	13.3 µM	1.86 µM	3.65 µM	3.71 µM
COc1cc2cc(Oc3ccc(NC(=O)c4cccc5c4OCCO5)cc3)c(C)nc2cc1OC	49.9 µM	> 100 µM	6.12 µM	> 100 µM	4.95 µM	> 100 µM	4.06 µM	53.1 µM	4.17 µM	> 100 µM	8.14 µM	> 100 µM	5.64 µM	> 100 µM	4.12 µM	25.7 µM	> 100 µM	3.32 µM	35 µM	> 100 µM
c1ccc(CC(NCCNC(Cc2ccccc2)c2ccccc2)c2ccccc2)cc1 (stereo not given)	0.401 µM	1.38 µM	0.227 µM	0.567 µM	0.191 µM	0.382 µM	1.43 µM	4.56 µM	0.415 µM	1.96 µM	0.589 µM	2.55 µM	1.64 µM	4.12 µM	0.243 µM	0.395 µM	1.87 µM	0.415 µM	2.02 µM	0.587 µM
COc1ccc(/C=C(/C(=O)n2cnnn2)c2cc(OC)c(OC)c(OC)c2)cc1	3.78 µM	> 100 µM	3.42 µM	> 100 µM	2.92 µM	7.21 µM	3.34 µM	> 100 µM	5.41 µM	> 100 µM	5.54 µM	> 100 µM	4.07 µM	> 100 µM	0.752 µM	3.5 µM	> 100 µM	40.5 µM	> 100 µM	> 100 µM
O=C(Nc1cc(S(=O)(=O)c2ccc(Cl)cc2)ccc1Cl)c1cc(I)cc(I)c1O	16.7 µM	32 µM	16.4 µM	30.2 µM	15.8 µM	29.6 µM	19.7 µM	43.1 µM	20.9 µM	38.8 µM	16.5 µM	33.9 µM	17.8 µM	47.6 µM	26 µM	17.2 µM	30.9 µM	17.2 µM	33.5 µM	60.1 µM
O=c1[nH]c2cc(Cl)c(Cl)cc2n2cc3ccccc3c12	15.8 µM	29.2 µM	29 µM	> 100 µM	29.6 µM	> 100 µM	21.6 µM	53.3 µM	17.9 µM	32.8 µM	17.2 µM	30.9 µM	20.1 µM	53 µM	17.3 µM	18 µM	31.8 µM	20.3 µM	49.8 µM	39 µM
Cc1n(Cc2ccc3ccccc3c2)c(Cl)c(Cl)[n+]1Cc1ccc2ccccc2c1	1.48 µM	3.06 µM	1.76 µM	4.12 µM	1.65 µM	3.8 µM	1.16 µM	2.66 µM	1.71 µM	8.24 µM	1.66 µM	3.86 µM	1.54 µM	3.79 µM	1.87 µM	2.22 µM	5.26 µM	1.39 µM	2.76 µM	4.98 µM
O=C(O)Cn1ccnc1[N+](=O)[O-]		> 100 µM		> 100 µM		> 100 µM		> 100 µM		> 100 µM		> 100 µM		> 100 µM			> 100 µM		> 100 µM	> 100 µM
COc1cc(O)c(C(C)=O)c(O)c1		> 100 µM		> 100 µM		> 100 µM		> 100 µM		> 100 µM		> 100 µM		> 100 µM			> 100 µM		> 100 µM	> 100 µM

From PubChem BioAssay (NCI)
